Results taken from article PMC10592352 (Cell chemical biology, 2023).

Legend:
[1] = ES1e mice, oral, 40 mg/kg; cited from earlier work
[2] = Concentration reached in aqueous buffer for co-crystallization; type: physicochemical; conditions: aqueous buffer with 10% DMSO
[3] = molecular target: PCNA (Homo sapiens, UniProt P12004); assay: Thermal denaturation; type: binding; conditions: dose-dependent, largest shift
[4] = system: Salmonella tester strains TA98 and TA100; assay: Ames test; conditions: TA98 frameshift, TA100 base pair substitution
[5] = Oral PK study in mice; type: in vivo, ES1e/SCID mice
[6] = system: human PBMCs, small airway epithelial cells (hSEAC), neural crest stem cells (7SM0032); assay: Growth of nonmalignant cells; type: cell-based
[7] = system: more than 70 cancer cell lines; assay: Growth inhibition across cancer cell lines; type: cell-based; conditions: read-out: median concentration to achieve 50% growth inhibition (GI50)
[8] = system: MDA-MB-468 breast cancer xenograft; assay: Xenograft tumor growth; conditions: MDA-MB-468 xenograft, 40 mg/kg twice daily, oral
[9] = system: H82 small-cell lung cancer xenograft; assay: Xenograft tumor growth; conditions: 40 mg/kg twice daily, oral
[10] = system: SK-N-BE(2)c neuroblastoma xenograft; assay: Xenograft tumor growth; conditions: 40 mg/kg twice daily
[11] = GLP-controlled toxicity study; design: species or system dogs; conditions: dog, in vivo
[12] = GLP-controlled toxicity study; design: species or system mice; conditions: mouse, in vivo

PCNA, sequence (P12004 whole entry): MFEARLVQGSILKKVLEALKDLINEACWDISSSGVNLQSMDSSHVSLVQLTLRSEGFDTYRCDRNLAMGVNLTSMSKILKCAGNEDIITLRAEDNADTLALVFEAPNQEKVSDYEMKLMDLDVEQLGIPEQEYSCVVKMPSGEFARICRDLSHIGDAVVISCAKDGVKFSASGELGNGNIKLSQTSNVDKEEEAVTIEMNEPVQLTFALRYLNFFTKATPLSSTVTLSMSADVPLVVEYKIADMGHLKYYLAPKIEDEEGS

SMILES: O=C(CNC(=O)c1cccc2ccccc12)Nc1ccccc1Oc1ccccc1 [AOH1160]
- half-life [1]: 3.4 h

SMILES: COc1cccc(Oc2ccccc2NC(=O)[C@H](CCC(=O)O)NC(=O)c2cccc3ccccc23)c1 [AOH1996LE]
- concentration in aqueous buffer [2]: 4 mM

SMILES: COc1cccc(Oc2ccccc2NC(=O)CNC(=O)c2cccc3ccccc23)c1 [AOH1996]
- shift of protein melting curves [3]: ≤ 1.5 °C
- mutagenicity in Ames test [4]: does not cause frameshift or base pair substitution
- absorption into the circulatory system ([5]; animals, data not shown): ~90%
- increase in area under the curve (AUC) versus AOH1160 ([5]; mice, 40 mg/kg): ~4%
- increase in half-life versus AOH1160 ([5]; mice, 40 mg/kg): ~ 27%
- increase in peak concentration (Cmax) versus AOH1160 ([5]; mice, 40 mg/kg): ~40%
- concentration not significantly toxic to nonmalignant cells [6]: at least 10 μM
- GI50 [7]: ~300 nM
- tumor burden versus vehicle [8]: significantly reduced the tumor burden
- tumor burden versus vehicle [9]: significantly reduced the tumor burden
- tumor burden versus vehicle ([10]; SK-N-BE(2)c xenograft, oral): significantly reduced the tumor burden
- death and body weight in tumor studies ([10]; xenograft-bearing ES1e/SCID mice): did not cause any death or significant weight loss
- NOAEL at 4 weeks [11]: 75 mg/kg
- NOAEL at 4 weeks [12]: ≥ 250 mg/kg
